Assay results published in article PMC6413085, “A Validated HPLC-MS/MS Assay for 14-O-[(4,6-Diaminopyrimidine-2-yl)thioacetyl] Mutilin in Biological Samples and Its Pharmacokinetic, Distribution and Excretion via Urine and Feces in Rats” (Molecules, 2019).

Assay: Stability of DPTM in plasma, tissue homogenates, urine and feces (QC samples)
Type: physicochemical, rat
Method: Stability of DPTM and IS was examined by comparing the analytes’ concentrations in freshly prepared samples with those of samples maintained under different conditions, including the 24 h storage at room temperature, three freeze and thaw cycles, and storage at −70 °C for 4 weeks, respectively. Analyzing three levels of QC samples were used to assess the stability (accuracy and precision) with six replicates.
For the construction of calibration curves, 20 μL of each corresponding standard working solution (0.05, 0.2, 0.5, 1, 2, 5, 10, 20 and 40 μg/mL) was evaporated to dryness by nitrogen at 40 °C. The calibration standards (5, 20, 50, 100, 200, 500, 1000, 2000 and 4000 ng/mL) were prepared by adding 200 μL of blank plasma, various tissue homogenates (including heart, liver, spleen, lung, kidney, large intestine, small intestine, ileum, cecum, bladder, brain, jejunum and colon) or urine and feces to the residue, respectively. Quality control (QC) samples (10, 200 and 3000 ng/mL) were obtained by the same way as the calibration standards. All solutions were stored at −70 °C before use for no longer than 4 weeks.

What does the source list for `C=CC1(C)CC(OC(=O)CSc2nc(N)cc(N)n2)C2(C)C(C)CCC3(CCC(=O)C32)C(C)C1O` (stereo not drawn) [DPTM, 14-O-[(4,6-Diaminopyrimidine-2-yl)thioacetyl] mutilin]?
Stability RE (Jejunum, 200 ng/mL, Long-term (−70 °C, 4 Weeks)): 7.3%; Stability RE (Jejunum, 200 ng/mL, Short-term (25 °C, 24 h)): 7.5%; Stability RE (Jejunum, 3000 ng/mL, Freeze-thaw Cycles): −5.4%; Stability RE (Jejunum, 3000 ng/mL, Long-term (−70 °C, 4 Weeks)): −5.6%; Stability RE (Jejunum, 3000 ng/mL, Short-term (25 °C, 24 h)): −5.3%; Stability RE (Kidney, 10 ng/mL, Freeze-thaw Cycles): 3.7%; Stability RE (Kidney, 10 ng/mL, Long-term (−70 °C, 4 Weeks)): 3.5%; Stability RE (Kidney, 10 ng/mL, Short-term (25 °C, 24 h)): 3.4%; Stability RE (Kidney, 200 ng/mL, Freeze-thaw Cycles): 2.3%; Stability RE (Kidney, 200 ng/mL, Long-term (−70 °C, 4 Weeks)): 1.9%; Stability RE (Kidney, 200 ng/mL, Short-term (25 °C, 24 h)): 0.9%; Stability RE (Kidney, 3000 ng/mL, Freeze-thaw Cycles): 10.1%; Stability RE (Kidney, 3000 ng/mL, Long-term (−70 °C, 4 Weeks)): 9.9%; Stability RE (Kidney, 3000 ng/mL, Short-term (25 °C, 24 h)): 3.2%; Stability RE (Large intestine, 10 ng/mL, Freeze-thaw Cycles): 6.3%; Stability RE (Large intestine, 10 ng/mL, Long-term (−70 °C, 4 Weeks)): 6.9%; Stability RE (Large intestine, 10 ng/mL, Short-term (25 °C, 24 h)): 1.9%; Stability RE (Large intestine, 200 ng/mL, Freeze-thaw Cycles): 2.4%; Stability RE (Large intestine, 200 ng/mL, Long-term (−70 °C, 4 Weeks)): 2.2%; Stability RE (Large intestine, 200 ng/mL, Short-term (25 °C, 24 h)): 5.7%; Stability RE (Large intestine, 3000 ng/mL, Freeze-thaw Cycles): 3.1%; Stability RE (Large intestine, 3000 ng/mL, Long-term (−70 °C, 4 Weeks)): 3.5%; Stability RE (Large intestine, 3000 ng/mL, Short-term (25 °C, 24 h)): −0.9%; Stability RE (Liver, 10 ng/mL, Freeze-thaw Cycles): 3.3%; Stability RE (Liver, 10 ng/mL, Long-term (−70 °C, 4 Weeks)): 3.4%; Stability RE (Liver, 10 ng/mL, Short-term (25 °C, 24 h)): 2.9%; Stability RE (Liver, 200 ng/mL, Freeze-thaw Cycles): 3.4%; Stability RE (Liver, 200 ng/mL, Long-term (−70 °C, 4 Weeks)): 3.6%; Stability RE (Liver, 200 ng/mL, Short-term (25 °C, 24 h)): 3.3%; Stability RE (Liver, 3000 ng/mL, Freeze-thaw Cycles): 1.9%; Stability RE (Liver, 3000 ng/mL, Long-term (−70 °C, 4 Weeks)): 2.1%; Stability RE (Liver, 3000 ng/mL, Short-term (25 °C, 24 h)): 6.1%; Stability RE (Lung, 10 ng/mL, Freeze-thaw Cycles): 2.5%; Stability RE (Lung, 10 ng/mL, Long-term (−70 °C, 4 Weeks)): 2.9%; Stability RE (Lung, 10 ng/mL, Short-term (25 °C, 24 h)): 3.3%; Stability RE (Lung, 200 ng/mL, Freeze-thaw Cycles): 3.1%; Stability RE (Lung, 200 ng/mL, Long-term (−70 °C, 4 Weeks)): 3.5%; Stability RE (Lung, 200 ng/mL, Short-term (25 °C, 24 h)): 2.1%; Stability RE (Lung, 3000 ng/mL, Freeze-thaw Cycles): 7.6%; Stability RE (Lung, 3000 ng/mL, Long-term (−70 °C, 4 Weeks)): 7.5%; Stability RE (Lung, 3000 ng/mL, Short-term (25 °C, 24 h)): 1.3%; Stability RE (Small intestine, 10 ng/mL, Freeze-thaw Cycles): 4.9%; Stability RE (Small intestine, 10 ng/mL, Long-term (−70 °C, 4 Weeks)): 4.6%; Stability RE (Small intestine, 10 ng/mL, Short-term (25 °C, 24 h)): 1.3%; Stability RE (Small intestine, 200 ng/mL, Freeze-thaw Cycles): 3.2%; Stability RE (Small intestine, 200 ng/mL, Long-term (−70 °C, 4 Weeks)): 3.6%; Stability RE (Small intestine, 200 ng/mL, Short-term (25 °C, 24 h)): 3.7%; Stability RE (Small intestine, 3000 ng/mL, Freeze-thaw Cycles): 3.9%; Stability RE (Small intestine, 3000 ng/mL, Long-term (−70 °C, 4 Weeks)): 3.8%; Stability RE (Small intestine, 3000 ng/mL, Short-term (25 °C, 24 h)): 5.3%; Stability RE (Spleen, 10 ng/mL, Freeze-thaw Cycles): 3.6%; Stability RE (Spleen, 10 ng/mL, Long-term (−70 °C, 4 Weeks)): 3.3%; Stability RE (Spleen, 10 ng/mL, Short-term (25 °C, 24 h)): 3.7%; Stability RE (Spleen, 200 ng/mL, Freeze-thaw Cycles): 7.9%; Stability RE (Spleen, 200 ng/mL, Long-term (−70 °C, 4 Weeks)): 7.1%; Stability RE (Spleen, 200 ng/mL, Short-term (25 °C, 24 h)): 7.2%; Stability RE (Spleen, 3000 ng/mL, Freeze-thaw Cycles): 5.6%; Stability RE (Spleen, 3000 ng/mL, Long-term (−70 °C, 4 Weeks)): 5.7%; Stability RE (Spleen, 3000 ng/mL, Short-term (25 °C, 24 h)): 5.9%; results of stability experiments (% RE and % RSD) (plasma, tissue homogenates, urine and feces, 24 h at room temperature, three freeze and thaw cycles, −70 °C for 4 weeks): ≤ 15%
